{"source": "patent US20100197797A1", "about": "(priority 2009, published 2010)", "key": {"[1]": {"assay": "Drug interaction studies in healthy adult subjects", "type": "in vivo, human", "method": "The drug interaction studies described below were conducted in healthy adult subjects."}, "healthy subjects [2]": {"tested_on": "healthy subjects", "assay": "QTcF interval study, placebo- and positive-controlled", "type": "in vivo, human", "details": "600 mg/day", "text": "After baseline and placebo adjustment, the maximum mean QTcF change was 8 ms (2-sided 90% CI, 3-12 ms)."}, "fibromyalgia [3]": {"tested_on": "fibromyalgia", "assay": "Study 2, 3-month fibromyalgia efficacy study", "type": "in vivo, human", "text": "(§1) Enrolled patients met the American College of Rheumatology (ACR) criteria for fibromyalgia (a history of widespread pain for 3 months and pain present at 11 or more of the 18 specific tender point sites). […] Study 1 was six months in duration and Study 2 was three months in duration.\nPatients were enrolled with a minimum mean baseline pain score of ≧40 mm on a 100-mm VAS ranging from 0 (“no pain”) to 100 (“worst possible pain”). The mean baseline pain score in this trial was 65."}, "fibromyalgia [4]": {"tested_on": "fibromyalgia", "assay": "Study 1, 6-month fibromyalgia efficacy study", "type": "in vivo, human", "text": "as §1\nPatients were enrolled with a minimum mean baseline pain score of ≧50 mm on a 100 mm visual analog scale (VAS) ranging from 0 (“no pain”) to 100 (“worst possible pain”). The mean baseline pain score in this trial was 69."}, "patients": {"tested_on": "patients", "assay": "Spontaneous / postmarketing reports", "type": "in vivo, human", "details": "post-marketing, multiple drugs but also milnacipran hydrochloride only", "text": "However, because these adverse reactions were reported voluntarily from a population of uncertain size, it is not always possible to reliably estimate their frequency or establish a causal relationship to drug exposure."}, "healthy subjects [5]": {"tested_on": "healthy subjects", "assay": "Placebo-controlled clinical pharmacology study, blood pressure at supratherapeutic doses", "type": "in vivo, human", "details": "300 mg twice daily, 12 hour steady state dosing interval"}, "Solubility": {"assay": "Solubility", "type": "physicochemical"}, "humans": {"tested_on": "humans", "assay": "Acute overdose in clinical trials", "type": "in vivo, human", "details": "up to 1000 mg, alone or in combination with other drugs", "text": "There is limited clinical experience with milnacipran hydrochloride overdose in humans."}, "plasma proteins": {"tested_on": "plasma proteins", "assay": "Plasma protein binding", "type": "in vitro ADME"}, "Human pharmacokinetics": {"assay": "Human pharmacokinetics", "details": "in vivo", "method": "The pharmacokinetic parameters described herein include area under the plasma concentration-time curve (AUC0-t and AUC0-∞), maximum plasma concentration (Cmax), time of maximum plasma concentration (Tmax) and terminal elimination half-life (T1/2). The time of maximum concentration, Tmax, is determined as the time corresponding to Cmax. Area under the plasma concentration-time curve up to the time corresponding to the last measurable concentration (AUC0-t) is calculated by numerical integration using the linear trapezoidal rule as follows: […]"}, "[6]": {"details": "100 mg and 200 mg daily, 3-month time point"}}}
{"smiles": "CCN(CC)C(=O)C1(c2ccccc2)CC1CN.Cl", "note": "(racemic) [milnacipran hydrochloride, (±)-[1R(S),2S(R)]-2-(aminomethyl)-N,N-diethyl-1-phenylcyclopropanecarboxamide hydrochloride]", "values": [{"measurement": "pharmacokinetic interaction with digoxin", "setting": "[1]; 200 mg/day and digoxin 0.2 mg/day Lanoxicaps, multiple-dose", "result": "no pharmacokinetic interaction"}, {"measurement": "change in pharmacokinetics of carbamazepine or its epoxide metabolite", "setting": "[1]; co-administration with milnacipran hydrochloride", "result": "No changes were observed"}, {"measurement": "adverse events after switching from clomipramine", "setting": "[1]; human, in vivo", "result": "an increase in euphoria and postural hypotension"}, {"measurement": "hemodynamic adverse effects in combination with digoxin", "setting": "[1]; intravenously administered digoxin (1 mg)", "result": "Postural hypotension and tachycardia have been reported"}, {"measurement": "effect on pharmacokinetics of lithium", "setting": "[1]; multiple doses, 100 mg/day", "result": "did not affect"}, {"measurement": "pharmacokinetic interaction with lorazepam", "setting": "[1]; single dose 50 mg and lorazepam 1.5 mg", "result": "no pharmacokinetic interaction"}, {"measurement": "clinical significance of QTcF increase", "setting": "healthy subjects [2]", "result": "not considered to be clinically significant"}, {"measurement": "maximum mean QTcF change", "setting": "healthy subjects [2]; after baseline and placebo adjustment (2-sided 90% CI, 3-12 ms)", "result": 8, "unit": "ms"}, {"measurement": "patients with at least 30% reduction in pain from baseline (VAS) and globally improved (PGIC) vs placebo", "setting": "fibromyalgia [3]; [6]", "result": "More patients"}, {"measurement": "benefit of 200 mg/day vs 100 mg/day", "setting": "fibromyalgia [3]; in vivo", "result": "did not confer greater benefit"}, {"measurement": "patients with at least 30% reduction in pain from baseline (VAS) and globally improved (PGIC) vs placebo", "setting": "fibromyalgia [4]; [6]", "result": "More patients"}, {"measurement": "proportion meeting composite response criteria: pain (VAS), physical function (SF-36 PCS), patient global assessment (PGIC), vs placebo", "setting": "fibromyalgia [4]; Studies 1 and 2", "result": "larger proportion"}, {"measurement": "proportion with simultaneous pain reduction of at least 30% (VAS) and PGIC much or very much improved, vs placebo", "setting": "fibromyalgia [4]; Studies 1 and 2", "result": "larger proportion"}, {"measurement": "onset of decrease in pain", "setting": "fibromyalgia [4]; both studies, some patients globally much or very much improved, stable dose", "result": "as early as week 1"}, {"measurement": "benefit of 200 mg/day vs 100 mg/day", "setting": "fibromyalgia [4]; in vivo", "result": "did not confer greater benefit"}, {"measurement": "outcome of acute overdoses", "setting": "patients", "result": "fatal outcomes have been reported"}, {"measurement": "mean increase in supine diastolic blood pressure", "setting": "healthy subjects [5]", "result": "up to 11.5 mm Hg"}, {"measurement": "mean increase in supine systolic blood pressure", "setting": "healthy subjects [5]", "result": "up to 10.0 mm Hg"}, {"measurement": "solubility", "setting": "Solubility; chloroform", "result": "freely soluble"}, {"measurement": "solubility", "setting": "Solubility; diethyl ether", "result": "sparingly soluble"}, {"measurement": "solubility", "setting": "Solubility; ethanol", "result": "freely soluble"}, {"measurement": "solubility", "setting": "Solubility; methanol", "result": "freely soluble"}, {"measurement": "solubility", "setting": "Solubility; methylene chloride", "result": "freely soluble"}, {"measurement": "solubility", "setting": "Solubility; water", "result": "freely soluble"}, {"measurement": "outcome of acute ingestions", "setting": "humans", "result": "none being fatal"}, {"measurement": "plasma protein binding", "setting": "plasma proteins", "result": 13, "unit": "%"}, {"measurement": "effect of food on absorption", "setting": "Human pharmacokinetics", "result": "not affected by food"}]}
